The term inhibition denotes the relative decrease from the control value, in per cent.

A value given as a limit tells only on which side of the number the result lay.

The test has as its system HL-60 cells differentiated into neutrophil cells. As to the kind of experiment: ROS production induced by PMA in HL-60 cells differentiated into neutrophil cells. Format: cell-based. The note with it: Homo sapiens, 0.5 h; differentiated HL-60 cells, compounds 0.5 uM (0.5 mM in the source) for 30 minutes, 200 nM PMA, L-012 luminescence. The text has this: In order to confirm the effect of the compounds of Synthetic examples on ROS production from fibroblasts and specific substrate cells, ROS production was induced by stimulation of PMA (phorbol 12-myristate 13-acetate), TGF-β1, palmitate or high concentration-glucose, or the like, in HL-60 cells differentiated into neutrophil cells by DMSO treatment, NHLF (normal human lung fibroblast, Lonza), LX-2 (human hepatic stellate cells, Sigma), ARPE19 (human retinal pigment epithelial cell, ATCC), and KEL-FIB (Keloid fibroblast, ATCC) cells, and under this condition, the inhibitory effect of ROS production of the compounds of Synthetic Examples was observed.
HL-60 cells (human leukemia cells, ATCC) were suspended in a medium containing 1.25% DMSO (RPMI+10% FBS) and cultured under the condition of 5% CO2, 37° C. for 6 days, thereby inducing differentiation into neutrophil cells. […] Then, to each well comprising the cells and drug, 200 nM PMA was treated to induce ROS production, and such ROS production was measured by observing the luminescence level of each well using 100 μM L-012.
With `Oc1c2c(nn1-c1ccccn1)CCC(N(Cc1ccccc1)C1CC1)C2` (stereo not drawn) [Compound 2, 5-(Benzylcyclopropylamino)-2-(pyridin-2-yl)-4,5,6,7-tetrahydro-2H-indazol-3-ol], the inhibition at 0.5 µM is over 70%.
In turn, `CN(Cc1ccc(C#N)cc1)C1CCc2nn(-c3ccccn3)c(O)c2C1` (stereo not drawn) [Compound 3, 4-{[(3-Hydroxy-2-(pyridin-2-yl)-4,5,6,7-tetrahydro-2H-indazol-5-yl)methylamino]methyl}benzonitrile] returned an inhibition at 0.5 µM of over 70%.
The figure for `CN(Cc1ccc(F)cc1)C1CCc2nn(-c3ccccn3)c(O)c2C1` (stereo not drawn) [Compound 4, 5-[(4-Fluorobenzyl)methylamino]-2-(pyridin-2-yl)-4,5,6,7-tetrahydro-2H-indazol-3-ol] is over 70%; for `CN(Cc1ccccc1Cl)C1CCc2nn(-c3ccccn3)c(O)c2C1` (stereo not drawn) [Compound 6, 5-[(2-Chlorobenzyl)methylamino]-2-(pyridin-2-yl)-4,5,6,7-tetrahydro-2H-indazol-3-ol] it is over 70%.
The figure for `CN(Cc1cccc(Cl)c1)C1CCc2nn(-c3ccccn3)c(O)c2C1` (stereo not drawn) [Compound 7, 5-[(3-Chlorobenzyl)methylamino]-2-(pyridin-2-yl)-4,5,6,7-tetrahydro-2H-indazol-3-ol] is over 70%.
The figure for `CN(Cc1ccc(C(F)(F)F)cc1)C1CCc2nn(-c3ccccn3)c(O)c2C1` (stereo not drawn) [Compound 8, 5-[Methyl-(4-trifluoromethylbenzyl)amino]-2-pyridin-2-yl-4,5,6,7-tetrahydro-2H-indazol-3-ol] is under 30%; for `Cc1cccc(CN(C)C2CCc3nn(-c4ccccn4)c(O)c3C2)c1` (stereo not drawn) [Compound 9, 5-[Methyl-(3-methylbenzyl)amino]-2-(pyridin-2-yl)-4,5,6,7-tetrahydro-2H-indazol-3-ol] it is 50 to 70%.
Consider `CN(Cc1cccc(C(F)(F)F)c1)C1CCc2nn(-c3ccccn3)c(O)c2C1` (stereo not drawn) [Compound 10, 5-[Methyl-(3-trifluoromethylbenzyl)-amino]-2-pyridin-2-yl-4,5,6,7-tetrahydro-2H-indazol-3-ol], for which the inhibition at 0.5 µM was 30 to 50%.
Next, `CN(Cc1ccccc1C(F)(F)F)C1CCc2nn(-c3ccccn3)c(O)c2C1` (stereo not drawn) [Compound 11, 5-[Methyl-(2-trifluoromethylbenzyl)-amino]-2-pyridin-2-yl-4,5,6,7-tetrahydro-2H-indazol-3-ol]: under 30%; `Oc1c2c(nn1-c1ccccn1)CCC(N1CCOCC1)C2` (stereo not drawn) [Compound 15, 5-Morpholino-4-yl-2-(pyridin-2-yl)-4,5,6,7-tetrahydro-2H-indazol-3-ol]: over 70%; `Oc1c2c(nn1-c1ccccn1)CCC(N1CCc3ccccc3C1)C2` (stereo not drawn) [Compound 18, 5-(3,4-Dihydro-1H-isoquinolin-2-yl)-2-(pyridin-2-yl)-4,5,6,7-tetrahydro-2H-indazol-3-ol]: over 70%.
`CN(Cc1ccc(Cl)cc1)C1CCc2nn(-c3ccccn3)c(O)c2C1` (stereo not drawn) [Compound 19, 5-[(4-Chlorobenzyl)methylamino]-2-(pyridin-2-yl)-4,5,6,7-tetrahydro-2H-indazol-3-ol] showed an inhibition at 0.5 µM of over 70%.
Compound `CCN(Cc1ccccc1)C1CCc2nn(-c3ccccn3)c(O)c2C1` (stereo not drawn) [Compound 20, 5-(Benzylethylamino)-2-(pyridin-2-yl)-4,5,6,7-tetrahydro-2H-indazol-3-ol] registered an inhibition at 0.5 µM of 30 to 50%.
Next, `CCCN(Cc1ccccc1)C1CCc2nn(-c3ccccn3)c(O)c2C1` (stereo not drawn) [Compound 21, 5-(Benzylpropylamino)-2-(pyridin-2-yl)-4,5,6,7-tetrahydro-2H-indazol-3-ol]: 30 to 50%; `CCCCN(Cc1ccccc1)C1CCc2nn(-c3ccccn3)c(O)c2C1` (stereo not drawn) [Compound 22, 5-(Benzylbutylamino)-2-(pyridin-2-yl)-4,5,6,7-tetrahydro-2H-indazol-3-ol]: under 30%; `Cc1ccc(CN(C)C2CCc3nn(-c4ccccn4)c(O)c3C2)cc1` (stereo not drawn) [Compound 24, 5-[Methyl-(4-methylbenzyl)amino]-2-(pyridin-2-yl)-4,5,6,7-tetrahydro-2H-indazol-3-ol]: 30 to 50%.
Take `CN(Cc1cccc(C#N)c1)C1CCc2nn(-c3ccccn3)c(O)c2C1` (stereo not drawn) [Compound 25, 3-{[(3-Hydroxy-2-(pyridin-2-yl)-4,5,6,7-tetrahydro-2H-indazol-5-yl)methylamino]methyl}benzonitrile]: the inhibition at 0.5 µM was in the range of 30 to 50%.
`COc1ccccc1CN(C)C1CCc2nn(-c3ccccn3)c(O)c2C1` (stereo not drawn) [Compound 26, 5-[(2-Methoxybenzyl)-methylamino]-2-(pyridin-2-yl)-4,5,6,7-tetrahydro-2H-indazol-3-ol]: the inhibition at 0.5 µM was under 30%.
Next, `CN(Cc1cccc(F)c1)C1CCc2nn(-c3ccccn3)c(O)c2C1` (stereo not drawn) [Compound 27, 5-[(3-Fluorobenzyl)methylamino]-2-(pyridin-2-yl)-4,5,6,7-tetrahydro-2H-indazol-3-ol]: 30 to 50%.
The figure for `COc1ccc(CN(C)C2CCc3nn(-c4ccccn4)c(O)c3C2)cc1` (stereo not drawn) [Compound 28, 5-[(4-Methoxybenzyl)methylamino]-2-(pyridin-2-yl)-4,5,6,7-tetrahydro-2H-indazol-3-ol] is 50 to 70%; for `Cc1ccccc1CN(C)C1CCc2nn(-c3ccccn3)c(O)c2C1` (stereo not drawn) [Compound 29, 5-[Methyl-(2-methylbenzyl)amino]-2-(pyridin-2-yl)-4,5,6,7-tetrahydro-2H-indazol-3-ol] it is 30 to 50%.
The figure for `CN1CCN(c2cc(CN(C)C3CCc4nn(-c5ccccn5)c(O)c4C3)ncn2)CC1` (stereo not drawn) [Compound 34, 5-{methyl-[6-(4-methyl-piperazin-1-yl)-pyrimidin-4-ylmethyl]-amino}-2-pyridin-2-yl-4,5,6,7-tetrahydro-2H-indazol-3-ol] is 30 to 50%; for `CN1CCN(c2cccc3nc(CN(C)C4CCc5nn(-c6ccccn6)c(O)c5C4)cn23)CC1` (stereo not drawn) [Compound 37, 5-{Methyl[5-(4-methylpiperazin-1-yl)imidazo[1,2-a]pyridin-2-yl]methylamino}-2-(pyridin-2-yl)-4,5,6,7-tetrahydro-2H-indazol-3-ol] it is 30 to 50%.
In turn, `CN(C)c1ccc(CN(C)C2CCc3nn(-c4ccccn4)c(O)c3C2)cc1` (stereo not drawn) [Compound 70, 5-[(4-Dimethylamino)benzylmethylamino]-2-(pyridin-2-yl)-4,5,6,7-tetrahydro-2H-indazol-3-ol] displayed an inhibition at 0.5 µM of 30 to 50%.
On to `CN(C)c1ccccc1CN(C)C1CCc2nn(-c3ccccn3)c(O)c2C1` (stereo not drawn) [Compound 71, 5-[(2-Dimethylamino)benzylmethylamino]-2-(pyridin-2-yl)-4,5,6,7-tetrahydro-2H-indazol-3-ol], for which the inhibition at 0.5 µM was in the range of 50 to 70%.
Next, `CN1CCN(C2CCc3nn(-c4cccc(Cl)n4)c(O)c3C2)CC1` (stereo not drawn) [Compound 83, 2-(6-Chloropyridin-2-yl)-5-(4-methylpiperazin-1-yl)-4,5,6,7-tetrahydro-2H-indazol-3-ol]: over 70%; `Cc1cc(C(F)(F)F)cc(-n2nc3c(c2O)CC(N2CCN(C)CC2)CC3)n1` (stereo not drawn) [Compound 84, 2-(6-Methyl-4-(trifluoromethyl)pyridin-2-yl)-5-(4-methylpiperazin-1-yl)-4,5,6,7-tetrahydro-2H-indazol-3-ol]: 50 to 70%; `CN1CCN(C2CCc3nn(-c4nccc5sccc45)c(O)c3C2)CC1` (stereo not drawn) [Compound 85, 5-(4-Methylpiperazin-1-yl)-2-(thieno[3,2-c]pyridin-4-yl)-4,5,6,7-tetrahydro-2H-indazol-3-ol]: 50 to 70%.
Next, `CN1CCN(C2CCc3nn(-c4ncccc4F)c(O)c3C2)CC1` (stereo not drawn) [Compound 86, 2-(3-Fluoropyridin-2-yl)-5-(4-methylpiperazin-1-yl)-4,5,6,7-tetrahydro-2H-indazol-3-ol]: 30 to 50%.
Next, `Oc1c2c(nn1-c1ccccn1)CCC(N1CCN(Cc3ccccn3)CC1)C2` (stereo not drawn) [Compound 87, 2-(Pyridin-2-yl)-5-(4-(pyridin-2-ylmethyl)piperazin-1-yl)-4,5,6,7-tetrahydro-2H-indazol-3-ol]: 50 to 70%; `COc1ccc(CNC2CCc3nn(-c4ccccn4)c(O)c3C2)cc1` (stereo not drawn) [Compound 88, 5-((4-Methoxybenzyl)amino)-2-(pyridin-2-yl)-4,5,6,7-tetrahydro-2H-indazol-3-ol]: 50 to 70%; `CC#CC(=O)N1CCN(C2CCc3nn(-c4ccccn4)c(O)c3C2)CC1` (stereo not drawn) [Compound 89]: over 70%.
`Oc1c2c(nn1-c1ccccn1)CCC(N1CCN(Cc3ccc4ncccc4c3)CC1)C2` (stereo not drawn) [Compound 90, 2-(Pyridin-2-yl)-5-(4-(quinolin-6-ylmethyl)piperazin-1-yl)-4,5,6,7-tetrahydro-2H-indazol-3-ol] came in with an inhibition at 0.5 µM of over 70%.
Next, `CCN1CCN(C2CCc3nn(-c4ccccn4)c(O)c3C2)CC1` (stereo not drawn) [Compound 91, 5-(4-Ethylpiperazin-1-yl)-2-(pyridin-2-yl)-4,5,6,7-tetrahydro-2H-indazol-3-ol]: 50 to 70%; `Oc1c2c(nn1-c1ccccn1)CCC(Nc1ccccc1)C2` (stereo not drawn) [Compound 92, 5-(Phenylamino)-2-(pyridin-2-yl)-4,5,6,7-tetrahydro-2H-indazol-3-ol]: 30 to 50%.
The compound `Oc1c2c(nn1-c1ccccn1)CCC(NCCc1ccccc1)C2` (stereo not drawn) [Compound 93, 5-(Penethylamino)-2-(pyridin-2-yl)-4,5,6,7-tetrahydro-2H-indazol-3-ol] gave an inhibition at 0.5 µM of 30 to 50%.

The record behind these values is US11999718B2, “Pyrazole derivatives” (Aptabio Therapeutics Inc., priority 2021, dated 2024).
